The results in this text go back to patent US8557830B2, “RAF kinase modulators and methods of use” (Amgen Inc., priority 2007, dated 2013).

Read-outs that look alike come from different tables or passages of the source.

One experiment addresses T1, V600E mutant B-raf (Homo sapiens, UniProt P15056, V600E).
T1 construct: A375 cells, a human melanoma cell line having the V600E mutant B-raf is used in this assay; endogenous in cells; host or cells: A375 human melanoma cells
Briefly: B-raf cell-based assay (ratio of phospho-ERK1/2 to total ERK1/2 in A375 cells). The note with it: A375 human melanoma cells, P-ERK/total ERK. Here is the method: A cell-based assay was optimized to assay the ability of compounds to inhibit B-raf activity in a whole cell context. […] The cell-based assay quantifies the ratio of phospho-ERK1/2 to total ERK1/2 and can thereby assay the cellular inhibition of B-raf kinase activity. A375 cells are plated into 96 well plates and grown to confluence. The cells are then changed into starve media (DMEM/0.1% BSA) for 60 minutes. Compounds in DMSO dose curves are then diluted in starve media and added to cells. […] After a 60 minute incubation the cells are fixed for 20 minutes at RT in 4% formaldehyde with 0.1% Triton X-100, protease and phosphatase inhibitors in PBS. The cells are washed four times in PBS then blocked for 60 minutes using a one to one mix of Odyssey blocking buffer (Li-Cor Biosciences, Inc) and PBS. Primary antibodies (rabbit anti-phospho p42/p44 MAPK (P-ERK1/2) from Cell Signaling Technology and mouse anti-ERK2 from Santa Cruz Biotechnology) are diluted in blocking buffer, added to the cells and incubated overnight at 4° C. The cells are then washed four times in PBS/0.1% Tween-20. Secondary antibodies (anti-mouse IRDye 800CW from Rockland, Inc and anti-rabbit AlexaFlour680 from Molecular Probes) are diluted in blocking buffer/0.5% Tween and incubated on cells for 60 minutes. After 4 washes in PBS/0.1% Tween-20 the microplate is scanned on an Odyssey Infrared Imager (Li-Cor Bioscience) which can read the signal given by the two secondary antibodies on their respective channels. The ratio of P-ERK/total ERK is determined and IC50s generated using Excel-XLfit software.

The target in the next experiment is recombinant HuBraf V600E (Homo sapiens, UniProt P15056, V600E). The experiment can be described thus: B-raf Homogenous Time Resolved Fluorescent (HTRF) kinase assay. It is filed as biochemical. The note with it: human mutant B-raf V600E, substrate MEK1, 10 uM ATP, read-out: HTRF Enzyme assay Data IC50. How it is done: B-raf-Homogenous Time Resolved Fluorescent (HTRF) Kinase Assay
The final concentration of the kinase reaction buffer is 50 mM Tris-HCL pH 7.5, 10 mM MgCl2, 0.5% glucose, 0.5 mM DTT, 0.01% BSA. […] The detection reaction proceeds for one hour and is read on a RubyStar (BMG Labtech) counter. IC50s for the test compounds are generated using Excel-XLfit software.

T1 sequence (P15056 whole entry V600E): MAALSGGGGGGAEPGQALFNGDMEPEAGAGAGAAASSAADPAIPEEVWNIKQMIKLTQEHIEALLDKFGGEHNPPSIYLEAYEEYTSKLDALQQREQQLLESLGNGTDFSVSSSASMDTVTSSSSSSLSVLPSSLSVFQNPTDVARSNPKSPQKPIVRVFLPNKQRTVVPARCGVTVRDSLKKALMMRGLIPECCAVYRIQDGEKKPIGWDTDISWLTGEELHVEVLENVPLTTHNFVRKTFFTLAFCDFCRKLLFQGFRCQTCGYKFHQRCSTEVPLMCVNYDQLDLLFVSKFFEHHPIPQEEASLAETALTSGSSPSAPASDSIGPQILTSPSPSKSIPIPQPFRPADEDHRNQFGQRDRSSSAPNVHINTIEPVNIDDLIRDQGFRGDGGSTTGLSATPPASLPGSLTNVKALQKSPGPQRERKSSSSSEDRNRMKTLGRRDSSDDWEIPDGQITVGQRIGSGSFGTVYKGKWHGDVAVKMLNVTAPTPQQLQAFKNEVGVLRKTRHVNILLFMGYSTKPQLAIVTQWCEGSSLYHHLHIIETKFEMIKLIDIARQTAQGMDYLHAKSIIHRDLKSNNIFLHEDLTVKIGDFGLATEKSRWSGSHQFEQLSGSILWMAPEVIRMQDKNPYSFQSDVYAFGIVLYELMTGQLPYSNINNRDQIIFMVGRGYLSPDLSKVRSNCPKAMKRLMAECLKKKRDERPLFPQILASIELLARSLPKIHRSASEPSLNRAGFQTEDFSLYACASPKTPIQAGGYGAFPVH
recombinant HuBraf V600E, sequence (P15056 whole entry V600E): as above

For `Cc1ccc2c(Nc3ccc4c(c3)OC(F)(F)O4)nccc2c1Nc1ncccc1-c1ncnc2[nH]ccc12` [Example 44, N-1-(2,2-difluoro-1,3-benzodioxol-5-yl)-6-methyl-N-5-(3-(7H-pyrrolo[2,3-d]pyrimidin-4-yl)-2-pyridinyl)-1,5-isoquinolinediamine], the IC50 is 25 nM on V600E mutant B-raf (Table I) and 13 nM on recombinant HuBraf V600E (Table I).
Take `Cc1ccc2c(Nc3ccc4snc(C)c4c3)nccc2c1Nc1ncccc1-c1ncnc2[nH]ccc12` [Example 48, 6-methyl-N-1-(3-methyl-1,2-benzisothiazol-5-yl)-N-5-(3-(7H-pyrrolo[2,3-d]pyrimidin-4-yl)-2-pyridinyl)-1,5-isoquinolinediamine]: the results for the IC50 at V600E mutant B-raf (Table I) and on recombinant HuBraf V600E (Table I) were 15 nM and 11 nM, respectively.
Consider `Cc1ccc2c(Nc3ccc(OC(F)F)cc3)ncnc2c1Nc1ncccc1-c1ncnc2[nH]cnc12` [Example 76, N-4-(4-(difluoromethoxy)phenyl)-7-methyl-N-8-(3-(9H-purin-6-yl)-2-pyridinyl)-4,8-quinazolinediamine], for which the results for the IC50 at V600E mutant B-raf (Table II) and on recombinant HuBraf V600E (Table II) were 5 nM and 9 nM, respectively.
Turning to `Cc1ccc2c(Nc3ccc(Cl)cc3)nccc2c1Oc1ncccc1-c1ncnc2[nH]cnc12` [Example 68, N-(4-chlorophenyl)-6-methyl-5-((3-(9H-purin-6-yl)-2-pyridinyl)oxy)-1-isoquinolinamine], the IC50 at V600E mutant B-raf (Table I) turned out to be 1000 nM; on recombinant HuBraf V600E (Table I), 26 nM.
In the same order, the values of `Cc1ccc2c(Nc3ccc4c(c3)C(F)(F)C(=O)N4C)nccc2c1Nc1ncccc1-c1ncnc2[nH]ccc12` [Example 45, 3,3-difluoro-1-methyl-5-((6-methyl-5-((3-(7H-pyrrolo[2,3-d]pyrimidin-4-yl)-2-pyridinyl)amino)-1-isoquinolinyl)amino)-1,3-dihydro-2H-indol-2-one] are 15 nM and 8 nM.
Turning to `Cc1ccc2c(Nc3ccc(Cl)cc3)nccc2c1Nc1ncccc1-c1ncnc2[nH]ncc12` [Example 67, N5-(3-(1H-pyrazolo[3,4-d]pyrimidin-4-yl)pyridin-2-yl)-N1-(4-chlorophenyl)-6-methylisoquinoline-1,5-diamine], the IC50 at V600E mutant B-raf (Table I) came to 3 nM; on recombinant HuBraf V600E (Table I), 5 nM.
`Cc1ccc2c(Nc3ccc(Cl)cc3)nccc2c1Nc1ncccc1-c1ncnc2cc[nH]c12` [Example 62, N-1-(4-chlorophenyl)-6-methyl-N-5-(3-(5H-pyrrolo[3,2-d]pyrimidin-4-yl)-2-pyridinyl)-1,5-isoquinolinediamine]: the figures for the IC50 on V600E mutant B-raf (Table I) and on recombinant HuBraf V600E (Table I) were 282 nM and 20 nM, respectively.
In the case of `Cc1ccc2c(Nc3ccc(Cl)cc3)nccc2c1Nc1ncncc1-c1ncnc2[nH]cnc12` [Example 69, N-1-(4-chlorophenyl)-6-methyl-N-5-(5-(9H-purin-6-yl)-4-pyrimidinyl)-1,5-isoquinolinediamine], the IC50 at V600E mutant B-raf (Table II) worked out at 4 nM; on recombinant HuBraf V600E (Table II), 2 nM.
Turning to `Cc1ccc2c(Nc3ccc4ncsc4c3)nccc2c1Nc1ncccc1-c1ncnc2[nH]ccc12` [Example 49, N-1-1,3-benzothiazol-6-yl-6-methyl-N-5-(3-(7H-pyrrolo[2,3-d]pyrimidin-4-yl)-2-pyridinyl)-1,5-isoquinolinediamine], the IC50 was 10 nM on V600E mutant B-raf (Table I) and 7 nM on recombinant HuBraf V600E (Table I).
For `Cc1ccc2c(Nc3ccc(C(F)(F)F)cc3)nccc2c1Nc1ncccc1-c1ncnc2[nH]ccc12` [Example 53, 6-methyl-N-5-(3-(7H-pyrrolo[2,3-d]pyrimidin-4-yl)-2-pyridinyl)-N-1-(4-(trifluoromethyl)phenyl)-1,5-isoquinolinediamine], the results for the IC50 on V600E mutant B-raf (Table I) and at recombinant HuBraf V600E (Table I) were 52 nM and 47 nM, respectively.
With `Cc1ccc2c(Nc3ccc4c(c3)NC(=O)C4(C)C)nccc2c1Nc1ncccc1-c1ncnc2[nH]ccc12` [Example 51, 3,3-dimethyl-6-((6-methyl-5-((3-(7H-pyrrolo[2,3-d]pyrimidin-4-yl)-2-pyridinyl)amino)-1-isoquinolinyl)amino)-1,3-dihydro-2H-indol-2-one], the IC50 is 12 nM at V600E mutant B-raf (Table I) and 25 nM at recombinant HuBraf V600E (Table I).
Take `Cc1ccc2c(Nc3ccc4c(c3)C(F)(F)OC(F)(F)O4)nccc2c1Nc1ncccc1-c1ncnc2[nH]ccc12` [Example 54, 6-methyl-N-5-(3-(7H-pyrrolo[2,3-d]pyrimidin-4-yl)-2-pyridinyl)-N-1-(2,2,4,4-tetrafluoro-4H-1,3-benzodioxin-6-yl)-1,5-isoquinolinediamine]: the figures for the IC50 on V600E mutant B-raf (Table I) and at recombinant HuBraf V600E (Table I) were 99 nM and 205 nM, respectively.
With `Cc1ccc2c(N[C@H](C)c3ccc(Cl)cc3)nccc2c1Nc1ncccc1-c1ncnc2[nH]cnc12` [Example 78, N-1-((1R)-1-(4-chlorophenyl)ethyl)-6-methyl-N-5-(3-(9H-purin-6-yl)-2-pyridinyl)-1,5-isoquinolinediamine], the IC50 at V600E mutant B-raf (Table II) and at recombinant HuBraf V600E (Table II) was 33 nM each time.
For `C#Cc1cccc(Nc2nccc3c(Nc4ncccc4-c4ncnc5[nH]ccc45)c(C)ccc23)c1` [Example 43, N-1-(3-ethynylphenyl)-6-methyl-N~5~-(3-(7H-pyrrolo[2,3-d]pyrimidin-4-yl)-2-pyridinyl)-1,5-isoquinolinediamine], the IC50 at V600E mutant B-raf (Table I) is 10 nM; at recombinant HuBraf V600E (Table I), 3 nM.
With `Cc1ccc2c(Nc3ccc(C#N)cc3)ncnc2c1Nc1ncccc1-c1ncnc2[nH]ccc12` [Example 60, 4-((7-methyl-8-((3-(7H-pyrrolo[2,3-d]pyrimidin-4-yl)-2-pyridinyl)amino)-4-quinazolinyl)amino)benzonitrile], the IC50 at V600E mutant B-raf (Table I) came to 233 nM; at recombinant HuBraf V600E (Table I) it was 10 nM.
Regarding `C#Cc1cccc(Nc2ncnc3c(Nc4ncccc4-c4ncnc5[nH]cnc45)c(C)ccc23)c1` [Example 75, N-4-(3-ethynylphenyl)-7-methyl-N-8-(3-(9H-purin-6-yl)-2-pyridinyl)-4,8-quinazolinediamine], the IC50 was 28 nM at V600E mutant B-raf (Table II) and 3 nM on recombinant HuBraf V600E (Table II).
Take `Cc1ccc2c(Nc3ccc(C#N)cc3)nccc2c1Nc1ncccc1-c1ncnc2[nH]ccc12` [Example 40, 4-((6-methyl-5-((3-(7H-pyrrolo[2,3-d]pyrimidin-4-yl)-2-pyridinyl)amino)-1-isoquinolinyl)amino)benzonitrile]: the IC50 at V600E mutant B-raf (Table I) came to 23 nM; at recombinant HuBraf V600E (Table I), 3 nM.
Turning to `COc1ccc(Nc2nccc3c(Nc4ncccc4-c4ncnc5[nH]ncc45)c(C)ccc23)cc1C(F)(F)F` [Example 66, N5-(3-(1H-pyrazolo[3,4-d]pyrimidin-4-yl)pyridin-2-yl)-N1-(4-methoxy-3-(trifluoromethyl)phenyl)-6-methylisoquinoline-1,5-diamine], the values for the IC50 at V600E mutant B-raf (Table I) and at recombinant HuBraf V600E (Table I) were 28 nM and 25 nM, respectively.
In the same order, the values of `Cc1ccc2c(Nc3cccc(C(F)(F)F)c3)nccc2c1Nc1ncccc1-c1ncnc2[nH]ncc12` [Example 65, 6-methyl-N-5-(3-(1H-pyrazolo[3,4-d]pyrimidin-4-yl)-2-pyridinyl)-N-1-(3-(trifluoromethyl)phenyl)-1,5-isoquinolinediamine] are 8 nM and 8 nM.
For the compound `Cc1ccc2c(Nc3ccc(C#N)cc3)ncnc2c1Nc1ncccc1-c1ncnc2[nH]ncc12` [Example 70, 4-((7-methyl-8-((3-(1H-pyrazolo[3,4-d]pyrimidin-4-yl)-2-pyridinyl)amino)-4-quinazolinyl)amino)benzonitrile], the figures for the IC50 on V600E mutant B-raf (Table II) and on recombinant HuBraf V600E (Table II) were 86 nM and 5 nM, respectively.
Taken in the same sequence, the figures for `Cc1ccc2c(Nc3ccc(C#N)cc3)nccc2c1Nc1ncccc1-c1ncnc2[nH]ncc12` [Example 71, 4-((6-methyl-5-((3-(1H-pyrazolo[3,4-d]pyrimidin-4-yl)-2-pyridinyl)amino)-1-isoquinolinyl)amino)benzonitrile] were 12 nM and 4 nM.
Regarding `Cc1ccc2c(Nc3ccc4c(c3)NC(=O)[C@@H]4C)nccc2c1Nc1ncccc1-c1ncnc2[nH]ccc12` [Example 47, (3R)-3-methyl-6-((6-methyl-5-((3-(7H-pyrrolo[2,3-d]pyrimidin-4-yl)-2-pyridinyl)amino)-1-isoquinolinyl)amino)-1,3-dihydro-2H-indol-2-one], the figures for the IC50 on V600E mutant B-raf (Table I) and on recombinant HuBraf V600E (Table I) were 11 nM and 10 nM, respectively.
In the case of `Cc1ccc2c(Nc3ccc4c(c3)NC(=O)C4)nccc2c1Nc1ncccc1-c1ncnc2[nH]ccc12` [Example 50, 6-((6-methyl-5-((3-(7H-pyrrolo[2,3-d]pyrimidin-4-yl)-2-pyridinyl)amino)-1-isoquinolinyl)amino)-1,3-dihydro-2H-indol-2-one], the IC50 at V600E mutant B-raf (Table I) was determined as 45 nM; at recombinant HuBraf V600E (Table I) it was 12 nM.
